The target of this assay is TNFα trimer (Homo sapiens, UniProt P01375). Briefly: TNFα FP Competitive Binding Assay. To be noted: FP binding assay; 20 nM TNFα trimer, 1 nM OregonGreen488 probe; read-out: TNF IC50. How it is done: TNFα FP Competitive Binding Assay
• 1. Assay Buffer: Prepare 1× Assay Buffer (Water with 47 mM HEPES, 47 mM NaCl, 0.9 mM EDTA, 0.0071% Triton X-100) by adding 25 mL of 1 M HEPES, 5 mL of 5 M NaCl, 1 mL of 0.5 M EDTA, and 375 μL of a 10% Triton X-100 stock to a fresh 500 mL bottle of water. • 2. Assay Mixture: Prepare fresh Assay Mixture containing 20 nM TNFα trimer (60 nM protein) and 1 nM 2′,7′-difluoro-3′,6′-dihydroxy-N-(2-(2-(2-((4-(isoquinolin-8-yl)-3-(4-(isoquinolin-8-yl)phenethoxy)benzyl)oxy)ethoxy)ethoxy)ethyl)-3-oxo-3H-spiro[isobenzofuran-1,9′-xanthene]-5-carboxamide probe in 1× Assay Buffer. Compound Plate Preparation Manual 12-Point 1:3 Dilution Plates: (384 Well Polypropylene Plates)
Top concentration of compounds, 10 mM in DMSO, dispensed in rows A-O in columns 1 and 13. Compounds are serially diluted 1:3 with DMSO in columns 2-12 or 14-24 using a 16-channel Matrix pipettor. Plates stored at −20° C.
Discovery Preps 12-Point 1:3 Dilution Plates: (384 Well Assay Plates)
Top concentration, 5 mM in DMSO, of compounds placed in rows A-O in columns 1 and 13. Compounds are serially diluted 1:3 with DMSO in columns 2-12 or 14-24. Compound solutions are dispensed into replicate assay plates at 410 nL per well. Plates stored at 4° C.
TNFα FP Competitive Binding Assay Protocol
• 1. Compound plates warmed to rt. • 2. Fresh Assay Mixture is prepared. • 3. Assay Mixture (20 μL) is dispensed each well of 384 assay plates using a Thermo Multidrop Combi or 16-channel Matrix pipettor. If Manual 12-point 1:3 Dilution Plates are to be tested, Assay Mix is dispensed into empty plates. Discovery Preps 12-point 1:3 Dilution Plates already contain 410 nL compound solution in DMSO. • 4. For Manual 12-point 1:3 Dilution Plates, 0.7 μL is manually transferred using a 16-channel Matrix pipettor to replicate assay plates containing 20 μL Assay Mixture for a final top compound concentration of 338 μM (3.4% DMSO). • 5. For Discovery Preps 12-point 1:3 Dilution Plates, 20 μL Assay Mixture added the 410 nL compound solution already in the plates yields a final top compound concentration of 100 μM (2.0% DMSO). • 6. Background subtraction controls are wells P1-P8 containing only Assay Buffer. The low % inhibition controls are wells P9-P16 containing only Assay Mix. The high % inhibition are wells P17-P24 containing only 1 nM 2′,7′-difluoro-3′,6′-dihydroxy-N-(2-(2-(2-((4-(isoquinolin-8-yl)-3-(4-(isoquinolin-8-yl)phenethoxy)benzyl)oxy)ethoxy)ethoxy)ethyl)-3-oxo-3H-spiro[isobenzofuran-1,9′-xanthene]-5-carboxamide probe in 1× Assay Buffer. • 7. Plates are incubated at rt for 18-24 h in 37° C. incubator (CO2 is off). • 8. Prior to reading the assay, the plates are placed in a dark cabinet to equilibrate at rt for one hour. • 9. Background-subtracted fluorescence polarization (mP) is measured using a PerkinElmer Envision plate reader. • 10. Raw data is entered into Assay Explorer and dose-response curves are generated using a variable slope curve. Supplies, Materials, and Reagents

TNFα trimer, sequence (P01375 77-233 limits assumed): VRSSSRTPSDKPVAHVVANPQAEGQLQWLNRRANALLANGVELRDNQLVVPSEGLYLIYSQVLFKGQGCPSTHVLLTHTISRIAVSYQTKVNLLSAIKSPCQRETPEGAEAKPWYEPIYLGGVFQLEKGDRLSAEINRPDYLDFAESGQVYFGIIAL

As for `Cc1ccc(OC(F)F)c(Cn2c3cc(-c4cnn5c([C@@H](C)O)cnc5c4)ccc3c(=O)n2C)c1` (single isomer, unassigned) [Example 107], the IC50 is under 1 µM. The figure for `Cc1ccc(OC(F)F)c(Cn2c3cc(-c4cnn5c([C@H](C)O)cnc5c4)ccc3c(=O)n2C)c1` (single isomer, unassigned) [Example 108] is 1 to 10 µM; for `Cc1cccc([C@H](C)n2c3cc(-c4cnc(N5CCN(C(=O)CO)[C@H](C)C5)nc4)ccc3c(=O)n2C)c1` (single isomer, unassigned) [Example 117] it is under 1 µM; for `Cc1cccc([C@@H](C)n2c3cc(-c4cnc(N5CCN(C(=O)CO)[C@H](C)C5)nc4)ccc3c(=O)n2C)c1` (single isomer, unassigned) [Example 118] it is 1 to 10 µM. Regarding `Cn1c(=O)c2ccc(-c3cnc(N4CCOCC4)nc3)cc2n1Cc1c(F)cccc1OC(F)F` [Example 1, 1-(2-(Difluoromethoxy)-6-fluorobenzyl)-2-methyl-6-(2-morpholinopyrimidin-5-yl)-1H-indazol-3(2H)-one], the IC50 is under 1 µM. As to `Cn1c(=O)c2ccc(-c3cnc(N4CCOCC4)nc3)cc2n1Cc1cccc(F)c1` [Example 1.1], the IC50 lay within 1 to 10 µM. For the compound `Cn1c(=O)c2ccc(-c3cnc(N4CCOCC4)nc3)cc2n1Cc1cccc(OC(F)F)c1` [Example 1.2], the IC50 lay in the range of 1 to 10 µM. The same measure for `Cc1ccccc1Cn1c2cc(-c3cnc(N4CCOCC4)nc3)ccc2c(=O)n1C` [Example 1.3]: 1 to 10 µM. The same measure for `Cn1c(=O)c2ccc(-c3cnc(N4CCOCC4)nc3)cc2n1CCc1ccccc1` [Example 1.4]: over 10 µM; for `CC(c1ccccc1OC(F)F)n1c2cc(-c3cnc(N4CCOCC4)nc3)ccc2c(=O)n1C` (stereo not shown) [Example 1.5]: 1 to 10 µM.

With `Cn1c(=O)c2ccc(-c3cnc(N4CCOCC4)nc3)cc2n1Cc1cc(F)ccc1OC(F)F` [Example 1.6], the 50% inhibitory concentration (IC50) was in the range of 1 to 10 µM. In the case of `Cn1c(=O)c2ccc(-c3cnc(N4CCOCC4)nc3)cc2n1C(=O)c1ccccc1OC(F)F` [Example 1.7], the IC50 is over 10 µM. As to `Cn1c(=O)c2ccc(-c3cnc(N4CCOCC4)nc3)cc2n1C(=O)c1ccccc1` [Example 1.8], the concentration for half-maximal inhibition (IC50) is over 10 µM. Take `Cc1cccc(Cn2c3cc(-c4cnc(N5CCOCC5)nc4)ccc3c(=O)n2C)c1` [Example 1.9]: the IC50 was 1 to 10 µM.

`Cn1c(=O)c2ccc(-c3cnc(N4CCOCC4)nc3)cc2n1Cc1ccccc1` [Example 1.10]: the IC50 lay within 1 to 10 µM.

As for `Cn1c(=O)c2ccc(-c3cnc(N4CCOCC4)nc3)cc2n1Cc1ccc(F)cc1` [Example 1.11], the IC50 is over 10 µM. `Cn1c(=O)c2ccc(-c3cnc(N4CCOCC4)nc3)cc2n1Cc1ccccc1C#N` [Example 1.12]: the IC50 lay in the range of 1 to 10 µM. Take `Cn1c(=O)c2ccc(-c3cnc(N4CCOCC4)nc3)cc2n1CCc1ccccc1F` [Example 1.13]: the IC50 is over 10 µM.

As for `Cn1c(=O)c2ccc(-c3cnc(N4CCOCC4)nc3)cc2n1Cc1ncccc1Cl` [Example 1.14], the IC50 fell in the range of 1 to 10 µM.

Regarding `Cn1c(=O)c2ccc(-c3cnc(N4CCOCC4)nc3)cc2n1Cc1ccccc1F` [Example 1.15], the IC50 was in the range of 1 to 10 µM. For the compound `Cn1c(=O)c2ccc(-c3cnc(N4CCOCC4)nc3)cc2n1Cc1nc(Cl)ccc1Cl` [Example 1.16], the IC50 is 1 to 10 µM. Take `Cn1c(=O)c2ccc(-c3cnc(N4CCOCC4)nc3)cc2n1Cc1cnccc1Cl` [Example 1.17]: the IC50 was over 10 µM. Take `Cc1ccc(OC(F)F)c(Cn2c3cc(-c4cnc(N5CCOCC5)nc4)ccc3c(=O)n2C)c1` [Example 1.18]: the IC50 is under 1 µM. `Cc1ccc(C)c(Cn2c3cc(-c4cnc(N5CCOCC5)nc4)ccc3c(=O)n2C)c1` [Example 1.19]: the half-maximal inhibitory concentration (IC50) is under 1 µM. As to `Cn1c(=O)c2ccc(-c3cnc(N4CCOC(C)(C)C4)nc3)cc2n1Cc1ccccc1OC(F)F` [Example 2, 1-(2-(Difluoromethoxy)benzyl)-6-(2-(2,2-dimethylmorpholino)pyrimidin-5-yl)-2-methyl-1H-indazol-3(2H)-one], the IC50 was under 1 µM.

The values are drawn from patent publication US10160748B2 (AbbVie Inc., priority 2015, dated 2018).
